Assay results from PMC2924936 (ACS chemical biology, 2010).
Where two headings read alike, the source gives them in different places.

How the values were obtained:
[1] = target: T1, yeast NADPH-cytochrome P450 reductase (yCPR) (Saccharomyces cerevisiae, UniProt P16603); assay: SPR; assay type: binding
T1 sequence (P16603 34-691): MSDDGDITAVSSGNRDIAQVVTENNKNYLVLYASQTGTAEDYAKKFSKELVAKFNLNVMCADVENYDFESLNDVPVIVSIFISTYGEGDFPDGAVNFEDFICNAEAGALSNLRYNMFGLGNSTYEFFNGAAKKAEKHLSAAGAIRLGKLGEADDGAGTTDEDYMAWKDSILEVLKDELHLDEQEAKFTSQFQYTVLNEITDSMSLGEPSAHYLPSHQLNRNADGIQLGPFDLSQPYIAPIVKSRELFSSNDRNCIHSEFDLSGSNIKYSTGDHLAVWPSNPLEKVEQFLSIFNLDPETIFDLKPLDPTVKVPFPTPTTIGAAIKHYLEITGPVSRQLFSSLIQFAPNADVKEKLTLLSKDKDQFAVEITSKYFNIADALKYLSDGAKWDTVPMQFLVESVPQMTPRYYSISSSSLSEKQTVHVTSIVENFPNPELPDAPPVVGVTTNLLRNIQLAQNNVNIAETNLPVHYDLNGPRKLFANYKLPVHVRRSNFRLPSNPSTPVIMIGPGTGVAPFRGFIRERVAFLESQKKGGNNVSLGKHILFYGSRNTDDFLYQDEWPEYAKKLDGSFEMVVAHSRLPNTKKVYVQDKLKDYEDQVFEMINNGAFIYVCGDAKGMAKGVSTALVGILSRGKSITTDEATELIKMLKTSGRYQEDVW

[2] = target: T1, yeast NADPH-cytochrome P450 reductase (yCPR); assay: SPR; assay type: binding; remark: listed apart in the source

| Kd [1] | Kd [2] | SMILES |
| --- | --- | --- |
| 0.3 µM |  | Cc1cc2nc3c(=O)[nH]c(=O)nc-3n(C[C@H](O)[C@H](O)[C@H](O)COP(=O)(O)O)c2cc1C [compound 7, FMN] |
|  | 2.3 µM | Cc1cc2nc3c(=O)[nH]c(=O)nc-3n(C[C@H](O)[C@H](O)[C@H](O)COP(=O)(O)OP(=O)(O)OC[C@H]3O[C@@H](n4cnc5c(N)ncnc54)[C@H](O)[C@@H]3O)c2cc1C [compound 8, FAD] |
